{"source": "patent US9737552B2", "about": "“Treatment of cognitive impairment in a subject with a neurological autoimmune disease” (The Johns Hopkins University, priority 2010, dated 2017)", "key": {"[1]": {"system": "EAE mice", "assay": "Barnes maze testing in EAE mice", "type": "in vivo", "procedure": "To measure cognitive function in EAE mice, Barnes maze testing was conducted using the immunized mice, beginning approximately 4 weeks post-immunization. […] Animals were trained on the Barnes maze (AccuScan Instruments, Columbus, Ohio) for 4 trials per day (inter-trial interval >30 minutes) for 4 consecutive days. Briefly, mice were placed in the center of the maze platform under an opaque enclosed 3″×5″× container. After 15 seconds the container was removed and the mice were free to move in the maze. A target box was placed under 1 of the 40 holes around the maze perimeter, and the location of the target box, along with the location of 4 equally spaced polarizing visual cues and one lamp, remained the same throughout all trials. Mice were given up to 3 minutes to locate and enter the target box, and were gently guided into the target box if it was not found within the 3 minute limit. Following entry into the target box, the box was covered and the mouse remained in the box for 30 seconds before transfer to a holding cage. Paths were recorded and latency to the target hole, path efficiency, speed, and directional times were calculated using ANY-maze software (Stoelting, Wood Dale, Ill.)."}, "[2]": {"system": "EAE mice", "assay": "Fear conditioning test in EAE mice", "type": "in vivo", "procedure": "To measure fear memory and amygdala function in EAE mice, fear conditioning tests were performed. Following the Barnes maze testing, animals were given 1-2 weeks rest then subjected to fear conditioning. Briefly, animals were placed in a fear conditioning chamber for 240 seconds on 3 consecutive days. On day 1, a 2000 Hz tone was played for 28 seconds (seconds 180-208), immediately followed by a 2 second scrambled footshock (seconds 208-210). On day 2, animals were placed back in the same testing environment, but neither sound nor shock was administered. On days 3 and 5, mice were placed in a novel wooden box inside the fear conditioning chamber, and a 2000 Hz tone was played for 120 seconds (seconds 121-240). The duration of freezing behavior on each day was measured using FreezeScan software (Clever Sys Inc., Reston, Va.)."}, "[3]": {"system": "EAE mice", "procedure": "A separate cohort of 2-PMPA and Control EAE mice (n=6-7) were tested on the elevated plus maze 27 days after disease induction. Mice were placed in the center of the maze and given 5 minutes to freely explore the maze. Time spent in open and closed arms of the maze were tracked using ANY-maze software (Stoelting, Wood Dale, Ill.)."}, "[4]": {"system": "EAE mice", "assay": "EAE disease score in MOG35-55 immunized mice", "type": "in vivo", "settings": "100 mg/kg daily i.p. from immunization until sacrifice; vs Control mice", "protocol": "The effects of GCPII inhibition were tested on an animal model of multiple sclerosis (experimental autoimmune encephalomyelitis, or “EAE”). To induce EAE, mice were given two 50 μL subcutaneous flank injections of myelin oligodendrocyte glycoprotein 35-55 peptide fragment (MOG35-55) dissolved in 50 μL PBS emulsified in 50 μL IFA supplemented with 400 μg M. tuberculosis H37Ra, at a final concentration of 100 μg MOG35-55 per 100 μL total volume. At the time of MOG immunization and 2 days later, all EAE mice were administered intraperitoneal injections of 300 ng pertussis toxin in 100 μL PBS. Immunized mice were treated with either 2-PMPA or a vehicle control for the duration of the experiment. Vehicle (50 mM HEPES buffer) or 2-PMPA (100 mg/kg in vehicle at a pH of 7.4) was delivered daily via 0.1 mL intraperitoneal injections from the time of EAE immunization until sacrifice."}, "[5]": {"system": "GCPII", "assay": "Mass spectrometry of NAA and NAAG in post-mortem brains of EAE mice", "type": "in vivo", "settings": "Mean±SEM, 50 days after EAE immunization", "procedure": "(§1) To determine whether GCPII inhibition altered the levels of the enzyme's substrate (NAAG) or product (NAA), mass spectrometry was conducted in post-mortem brains of EAE mice either treated with 2-PMPA or a vehicle control. Animals were sacrificed by cervical dislocation 50 days after EAE immunization. Hippocampus, frontal lobe, and cerebellum structures were dissected, and NAA, NAAG, and 2-PMPA concentrations were measured via mass spectrometry. Briefly, NAAG and NAA in brain tissue homogenates were separated on a Waters Atlantis ODS column. NAA, NAAG, and the internal standard were monitored by tandem mass spectrometry with electrospray negative ionization. Linear calibration curves were generated over the range of 5-5000 ng/mL and converted to μg/g. For determination of 2-PMPA, separations were achieved on a Waters XTerra MS C18 column. 2-PMPA and the internal standard were monitored by tandem mass spectrometry with electrospray negative ionization. Linear calibration curves were generated over the 1-100 ng/mL range and converted to μg/g."}, "[6]": {"assay": "Mass spectrometry of 2-PMPA concentration in post-mortem brains of EAE mice", "type": "in vivo", "settings": "mouse, ip, Mean±SEM, 100 mg/kg daily i.p., sacrifice 50 days after immunization", "procedure": "as §1"}}, "note": "Like-named read-outs stand apart in the source and are kept apart here.", "data": [{"smiles": "O=C(O)CCC(CP(=O)(O)O)C(=O)O", "note": "(centres unmarked) [2-PMPA, 2-(phosphonomethyl)pentanedioic acid]", "values": [{"measurement": "Primary latency, total latency and path efficiency on the first two days of Barnes maze testing", "setting": "[1]; 100 mg/kg daily i.p., vs vehicle", "result": "equal between groups"}, {"measurement": "Path efficiency, first trial of day 4 compared to baseline (day 1, trial 1)", "setting": "[1]; Mean±SEM, 100 mg/kg daily i.p., p=0.0029 vs Control", "result": "−0.7276±0.0295"}, {"measurement": "Primary latency, first trial of day 4 compared to baseline (day 1, trial 1)", "setting": "[1]; Mean±SEM, 100 mg/kg daily i.p., p=0.0072 vs Control", "result": "167.4±1.187"}, {"measurement": "Total latency, first trial of day 4 compared to baseline (day 1, trial 1)", "setting": "[1]; Mean±SEM, 100 mg/kg daily i.p., p=0.0171 vs Control", "result": "167.4±1.187"}, {"measurement": "Path efficiency, back-to-back trials on consecutive days (long-term memory)", "setting": "[1]; Mean±SEM, e.g. trial 4 of day 3 vs. trial 1 of day 4, p=0.020 vs controls", "result": "−0.1377±0.0937"}, {"measurement": "Total latency, back-to-back trials on consecutive days (long-term memory)", "setting": "[1]; Mean±SEM, e.g. trial 4 of day 3 vs. trial 1 of day 4, p=0.021 vs controls", "result": "13.14±7.69"}, {"measurement": "Maximum speed in the maze", "setting": "[1]; vs control EAE group", "result": "No differences"}, {"measurement": "Baseline freezing on Day 1", "setting": "[2]; Day 1", "result": "< 20", "unit": "%"}, {"measurement": "Cued freezing behavior on Day 3", "setting": "[2]; Day 3, vs control", "result": "No differences"}, {"measurement": "Cued freezing in response to the 120 second tone on Day 5", "setting": "[2]; Day 5, specifically in the last 60 seconds, vs control", "result": "increased cued freezing"}, {"measurement": "Contextual freezing on Day 2", "setting": "[2]; Mean±SEM, Day 2, % time freezing (FIG. 5 legend)", "result": "50.49±4.18"}, {"measurement": "Time spent in the closed arms", "setting": "[3]", "result": "224.2±10.07"}, {"measurement": "Time spent in the open arms", "setting": "[3]", "result": "34.10±9.22"}, {"measurement": "Disease severity and progression, as measured by EAE disease scores", "setting": "[4]", "result": "did not differ"}, {"measurement": "NAAG concentration in the frontal cortex", "setting": "[5]; p=0.0002 vs control", "result": "32.91 ± 0.93", "unit": "µg/g"}, {"measurement": "NAAG concentration in the cerebellum", "setting": "[5]; p=0.0655 vs control", "result": "102.4 ± 2.3", "unit": "µg/g"}, {"measurement": "NAA in the hippocampus", "setting": "[5]; p=0.2895 vs control", "result": "985.0 ± 48.12", "unit": "µg/g"}, {"measurement": "NAA in the frontal cortex", "setting": "[5]; p=0.3035 vs control", "result": "1134 ± 45.65", "unit": "µg/g"}, {"measurement": "NAA in the cerebellum", "setting": "[5]; p=0.3053 vs control", "result": "899.3 ± 19.66", "unit": "µg/g"}, {"measurement": "NAAG concentration in the hippocampus", "setting": "[5]; p=0.8575 vs control", "result": "54.98 ± 2.037", "unit": "µg/g"}, {"measurement": "concentration at 50 days after EAE immunization", "setting": "[6]; cerebellum, read-out: 2-PMPA in the cerebellum", "result": "832 ± 56", "unit": "ng/g"}, {"measurement": "concentration at 50 days after EAE immunization", "setting": "[6]; frontal cortex, read-out: 2-PMPA in the frontal cortex", "result": "1190 ± 222", "unit": "ng/g"}, {"measurement": "concentration at 50 days after EAE immunization", "setting": "[6]; hippocampus, read-out: 2-PMPA in the hippocampus", "result": "835 ± 264", "unit": "ng/g"}]}]}
